The record followed here is ChEMBL document CHEMBL1772960, “N,N'-methyleno-didemnin A from the ascidian Trididemnum solidum. Complete NMR assignments and confirmation of the imidazolidinone ring by strategic analysis of 1J(CH)” (J Nat Prod, 2011).

In the test the test system is HCT-116. Kind of test: Cytotoxicity against human HCT116 cells assessed as growth inhibition after 72 hrs by MTS assay. Format: functional, cell-based. To be noted: HCT-116, 72 h.

Molecules are shown by their SMILES. *1 amine or outer side, *2 acyl side, *3 side chain or, on linkers, in order; H or OH if unused. Where a SMILES comes first, the peptide text is derived from it. Bridges are numbered along the chain shown (N, C = ends). [ ]: non-standard residue; d: D form. The star is where a group is joined. X1 = CC[C@H](C)[C@@H](N[*:1])[C@@H](O)CC(=O)O[C@H](C(=O)[C@H](C)C(=O)[*:2])C(C)C; NMeY = CN[C@@H](Cc1ccc(O)cc1)C(=O)O; NMeL = CN[C@@H](CC(C)C)C(=O)O; dNMeL = CN[C@H](CC(C)C)C(=O)O; Pyruvoyl = CC(=O)C(=O)*

With `CC[C@H](C)[C@H]1NC(=O)[C@@H](NC(=O)[C@H](CC(C)C)N(C)C(=O)[C@@H]2CCCN2C(=O)C(C)=O)[C@@H](C)OC(=O)[C@H](Cc2ccc(OC)cc2)N(C)C(=O)[C@@H]2CCCN2C(=O)[C@H](CC(C)C)NC(=O)[C@@H](C)C(=O)[C@H](C(C)C)OC(=O)C[C@@H]1O` (Pyruvoyl-P[NMeL]T[X1]LP[NMeY](Me); ester 3-C), the IC50 amounted to 24 nM.

For the compound `CC[C@H](C)[C@H]1NC(=O)[C@@H](NC(=O)[C@@H](CC(C)C)NC)[C@@H](C)OC(=O)[C@H](Cc2ccc(OC)cc2)N(C)C(=O)[C@@H]2CCCN2C(=O)[C@H](CC(C)C)NC(=O)[C@@H](C)C(=O)[C@H](C(C)C)OC(=O)C[C@@H]1O` [DIDEMNIN A] (H-[dNMeL]T[X1]LP[NMeY](Me); ester 2-C), the IC50 was determined as 32 nM.
